For 11 molecules, IC50, inhibition and IC100 results are on record in the Kinase Knowledgebase extract (Sharma et al. 2016).

The IC50 is the point on the concentration scale where inhibition reaches its midpoint. Broadly, the inhibition is the percentage by which the read-out fell short of the control. Read a high inhibition as a response far below the control.

The target in one assay is EGFR (Hamster) (UniProt P00533). Conditions: for IC50: er22; for inhibition: er22, dose or concentration not given here.
Chain of EGFR (Hamster) (P00533 whole entry, looked up): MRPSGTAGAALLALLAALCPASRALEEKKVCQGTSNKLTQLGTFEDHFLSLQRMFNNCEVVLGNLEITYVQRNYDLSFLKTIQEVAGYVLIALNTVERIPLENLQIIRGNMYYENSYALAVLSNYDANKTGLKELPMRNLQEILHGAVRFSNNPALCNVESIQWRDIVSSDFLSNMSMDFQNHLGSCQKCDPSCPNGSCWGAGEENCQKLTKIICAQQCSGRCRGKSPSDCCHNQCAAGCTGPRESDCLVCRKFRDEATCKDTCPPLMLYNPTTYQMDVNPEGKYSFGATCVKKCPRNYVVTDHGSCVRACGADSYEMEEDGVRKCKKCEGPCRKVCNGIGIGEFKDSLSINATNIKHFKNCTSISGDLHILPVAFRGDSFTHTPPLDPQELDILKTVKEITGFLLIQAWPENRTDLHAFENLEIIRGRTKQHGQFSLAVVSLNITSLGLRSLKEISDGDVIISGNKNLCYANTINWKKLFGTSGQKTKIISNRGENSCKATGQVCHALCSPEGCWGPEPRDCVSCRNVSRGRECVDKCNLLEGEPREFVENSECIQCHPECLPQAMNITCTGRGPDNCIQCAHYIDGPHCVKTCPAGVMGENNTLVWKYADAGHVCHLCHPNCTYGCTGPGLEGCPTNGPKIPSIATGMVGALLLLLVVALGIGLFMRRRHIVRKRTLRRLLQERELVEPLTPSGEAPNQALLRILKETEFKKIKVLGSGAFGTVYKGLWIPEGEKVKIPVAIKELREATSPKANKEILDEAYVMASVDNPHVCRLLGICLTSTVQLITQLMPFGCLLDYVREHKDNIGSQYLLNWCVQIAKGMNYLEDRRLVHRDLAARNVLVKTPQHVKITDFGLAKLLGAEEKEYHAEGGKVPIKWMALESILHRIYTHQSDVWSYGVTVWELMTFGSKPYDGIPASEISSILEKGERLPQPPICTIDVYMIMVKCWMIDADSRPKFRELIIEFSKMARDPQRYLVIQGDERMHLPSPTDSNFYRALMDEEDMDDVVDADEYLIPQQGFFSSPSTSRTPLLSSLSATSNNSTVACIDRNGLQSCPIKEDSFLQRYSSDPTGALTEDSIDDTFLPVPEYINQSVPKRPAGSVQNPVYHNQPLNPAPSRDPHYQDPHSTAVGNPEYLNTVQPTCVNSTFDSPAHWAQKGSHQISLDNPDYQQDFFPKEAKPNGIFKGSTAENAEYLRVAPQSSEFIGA
The target of a further assay is EGFR (UniProt P00533). Conditions: for inhibition: concentration not given here.
Chain of EGFR (P00533 whole entry, looked up): as above

In the assay with EGFR (Hamster), `O=C(OCCC1[C@H]2C[C@@H]3C[C@@H](C[C@H]1C3)C2)c1cc(NCc2cc(O)ccc2O)ccc1O` (some centres not stated) yielded an IC50 of 1.25 µM. In addition, on EGFR, the IC50 was over 5 µM and the inhibition is 0%. For the molecule `CC(C)(C)CCOC(=O)c1cc(N=Cc2cc(O)ccc2O)ccc1O`, in the assay with EGFR (Hamster), the IC50 is over 2 µM and the inhibition was determined as 0%. With `O=C(Cc1cc(N=Cc2cc(O)ccc2O)ccc1O)NOCc1ccccc1`, the inhibition with EGFR (Hamster) stood at 61%.

With `CC(C)(C)ONC(=O)c1cc(N=Cc2cc(O)ccc2O)ccc1O`, in the assay with EGFR (Hamster), the 50% inhibitory concentration (IC50) was over 20 µM and the inhibition worked out at 0%. With `CC(CCOC(=O)c1cc(NCc2cc(O)ccc2O)ccc1O)CC(C)(C)C` (configuration not stated), at EGFR, the inhibition worked out at 0%.

As for `CCCCCCCCCCCCCCCCOC(=O)c1cc(NCc2cc(O)ccc2O)ccc1O`, the inhibition in the assay with EGFR (Hamster) and on EGFR was 0% each time. `O=C(Oc1cccc(O)c1)c1cc(NCc2cc(O)ccc2O)ccc1O`: in the assay with EGFR (Hamster), the IC50 was over 5 µM and the inhibition stood at 0%. For `CONC(=O)c1cc(N=Cc2cc(O)ccc2O)ccc1O`, the IC50 with EGFR (Hamster) was over 100 µM. The same measure, in the same setting: to `CC(C)(C)OC(=O)c1cc(N=Cc2cc(O)ccc2O)ccc1O` belongs over 10 µM. On EGFR, `CC(COC(=O)c1cc(N=Cc2cc(O)ccc2O)ccc1O)CC(C)(C)C` (configuration not stated) returned an inhibition of 0%.

Turning to `O=C(Oc1ccc2ccccc2c1)c1cc(NCc2cc(O)ccc2O)ccc1O`, at EGFR, the IC100 came to 0.09 µM.
